# According to patent publication US12521377B2, “Uses of (+)-B-dihydrotetrabenazine in methods of treating movement disorder” (ADEPTIO PHARMACEUTICALS LIMITED, priority 2017, dated 2026):
# Entries after “also recorded” stand apart in the source; their conditions may differ.
# Columns and labels:
# [1] = Pharmacokinetic study, single-dose oral administration of tetrabenazine 25 mg to healthy adult male volunteers: plasma levels of tetrabenazine and DHTBZ isomers; format: in vivo, human; conditions: for Kel: N=08, unit not given; for status as metabolite of tetrabenazine in humans: single and multiple dose tetrabenazine 25 mg, Tables 1 and 2
# Method: (§1) A pharmacokinetic study was carried out in healthy adult male volunteers under fasting conditions at a dose of single and multiple oral administration of 25 mg tablets once a day to ascertain the plasma levels of +/−α and +/−β dihydro-tetrabenazine.
# Table 1 summarises the pharmacokinetic data obtained following single-dose oral administration of tetrabenazine at a dose level of 25 mg (fasting, N=08).
# [2] = target: Chromaffin Granule Monoamine Transporter (Bos taurus, UniProt Q27963); conditions: cited from earlier work
# Chromaffin Granule Monoamine Transporter, sequence (Q27963 whole entry): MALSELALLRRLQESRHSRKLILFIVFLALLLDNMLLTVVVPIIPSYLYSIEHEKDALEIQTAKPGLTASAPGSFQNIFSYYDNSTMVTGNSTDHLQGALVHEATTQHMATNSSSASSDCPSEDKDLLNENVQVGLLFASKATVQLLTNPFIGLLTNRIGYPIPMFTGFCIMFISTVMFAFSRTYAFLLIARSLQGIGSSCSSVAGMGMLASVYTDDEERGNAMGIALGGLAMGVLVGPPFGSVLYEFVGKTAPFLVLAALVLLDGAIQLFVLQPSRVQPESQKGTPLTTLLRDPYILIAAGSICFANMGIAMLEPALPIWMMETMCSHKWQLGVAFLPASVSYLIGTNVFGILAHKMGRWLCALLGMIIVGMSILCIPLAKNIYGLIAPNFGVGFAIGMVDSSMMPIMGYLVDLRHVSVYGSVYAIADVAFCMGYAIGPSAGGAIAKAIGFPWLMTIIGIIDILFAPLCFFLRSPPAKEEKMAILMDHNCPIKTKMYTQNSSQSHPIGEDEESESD
# [3] = test system: male CD rats; assay: Amphetamine induced locomotor activity and stereotypies in the open field arena; format: in vivo, rat; conditions: amphetamine at t=30 min; for normalised total distance travelled, compared to vehicle-amphetamine group / normalised total stereotypic behaviour, compared to vehicle-amphetamine group: listed as (+)-β-DHTBZ
# Method: Resulting locomotor activity was evaluated in 3 min bins and as a total over the testing period. […] Resulting stereotypic activity was evaluated in 3 min bins and as a total over the testing period.
# [4] = Pharmacokinetic study, multiple-dose oral administration of tetrabenazine 25 mg once a day to healthy adult male volunteers: plasma levels; format: in vivo; conditions: multiple-dose oral tetrabenazine 25 mg once a day, fasting, N=07, human plasma
# Method: as §1
# Table 2 summarises the pharmacokinetic data obtained following multiple-dose oral administration of tetrabenazine at a dose level of 25 mg (fasting, N=07).
# [5] = rat brain, stereochemistry not disclosed; cited from earlier work
# [6] = single-dose oral tetrabenazine 25 mg, fasting
# [7] = single-dose oral tetrabenazine 25 mg, fasting, N=08, human plasma
molecule,measurement,setting,value
"COc1cc2c(cc1OC)C1CC(=O)C(CC(C)C)CN1CC2 (racemic) [Tetrabenazine, 1,3,4,6,7,11b-hexahydro-9,10-dimethoxy-3-(2-methylpropyl)-2H-benzo(a)quinolizin-2-one]",Kel,[1]; [6],0.19
COc1cc2c(cc1OC)[C@H]1C[C@@H](O)[C@H](CC(C)C)CN1CC2 [(+)-α-dihydrotetrabenazine],more active than the (+)-β-isomer,"[2]; earlier findings, as worded",3- to 4 times
same,status as metabolite of tetrabenazine in humans,[1],minor metabolites
same,Kel,[1]; [6],0.17
"COc1cc2c(cc1OC)[C@H]1C[C@H](O)[C@H](CC(C)C)CN1CC2 [(+)-β-dihydrotetrabenazine, (S,R,R)-3-isobutyl-9,10-dimethyloxy-1,3,4,5,7,11b-hexahydro-2H-pyrido[2,1-a]isoquinolin-2-ol]",status as metabolite of tetrabenazine in humans,[1],major metabolites; also recorded: main metabolites
same,Kel,[1]; [6],0.13
same,"normalised total stereotypic behaviour, compared to vehicle-vehicle group",[3]; 2.5 mg/kg at t=0 min,significantly different
same,"normalised total distance travelled, compared to vehicle-amphetamine group",[3]; 2.5 mg/kg at t=0 min,lower locomotor activity
same,"normalised total stereotypic behaviour, compared to vehicle-amphetamine group",[3]; 2.5 mg/kg at t=0 min,significantly different; also recorded: reduced stereotypic behaviour
same,"normalised total stereotypic behaviour, compared to vehicle-vehicle group",[3]; 5 mg/kg at t=0 min,significantly different
same,"normalised total distance travelled, compared to vehicle-amphetamine group",[3]; 5 mg/kg at t=0 min,lower locomotor activity
same,"normalised total stereotypic behaviour, compared to vehicle-amphetamine group",[3]; 5 mg/kg at t=0 min,significantly different; also recorded: reduced stereotypic behaviour
COc1cc2c(cc1OC)[C@@H]1C[C@H](O)[C@@H](CC(C)C)CN1CC2 [(−)-α-dihydrotetrabenazine],status as metabolite of tetrabenazine in humans,[1],major metabolites; also recorded: main metabolites
same,Kel,[1]; [6],0.10
COc1cc2c(cc1OC)[C@@H]1C[C@@H](O)[C@@H](CC(C)C)CN1CC2 [(−)-β-dihydrotetrabenazine],status as metabolite of tetrabenazine in humans,[1],minor metabolites
same,Cmax,"[1]; single dose study, tetrabenazine administered to adult male humans",5.28 ng/mL
same,area under the curve (AUC),"[1]; single dose study, tetrabenazine administered to adult male humans (unit not given)",16.28
same,AUC(0-inf.),[1]; [7],18.77 ng·h/mL
same,AUC(0-t),[1]; [7],16.28 ng·h/mL
same,Cmax,[1]; [7],5.28 ng/mL
same,Extrapolated AUC,[1]; [7],17.66%
same,Half-life (Mean),[1]; [7],12.98 h
same,Tmax Mean,[1]; [7],1.03 h
same,Kel,[1]; [6],0.45
same,AUC(0-t),[4],25.17 ng·h/mL
same,Cmaxss,[4],7.78 ng/mL
same,Cminss,[4],0.16 ng/mL
same,Ctss,[4],0.57 ng/mL
same,Tmaxss Mean,[4],97.11 h
"COc1cc2c(cc1OC)C1CC(O)C(CC(C)C)CN1CC2 (stereo not shown) [dihydrotetrabenazine, 2-hydroxy-3-(2-methylpropyl)-1,3,4,6,7,11b-hexahydro-9,10-dimethoxy-benzo(a)quinolizine]",crossing of the blood-brain barrier,[5],able to cross the blood-brain barrier
α-dihydrotetrabenazine,higher affinity than the β-isomer,"[2]; racemic α- versus racemic β-dihydrotetrabenazine, in vitro",3- to 4 fold
